Source: ChEMBL document CHEMBL1128623, “Influence of the absolute configuration at C-4 in the binding of d-myoinositol 1,4,5 trisphosphate analogues to IP3 receptor” (Bioorg Med Chem Lett, 1995)

Tests used:
Details in all cases: Membrane
[1] = target: Inositol 1,4,5-trisphosphate-gated calcium channel ITPR3 (Rattus norvegicus) (UniProt Q63269); test: Inositol 1,4,5-trisphosphate receptor activity by residual [3H]- IP3 binding to rat cerebellar membranes by the compound at logC = -6M
[2] = target: Inositol 1,4,5-trisphosphate-gated calcium channel ITPR3 (Rattus norvegicus) (UniProt Q63269); test: Inositol 1,4,5-trisphosphate receptor activity by residual [3H]- IP3 binding to rat cerebellar membranes by the compound at logC = -7M
[3] = target: Inositol 1,4,5-trisphosphate-gated calcium channel ITPR3 (Rattus norvegicus) (UniProt Q63269); test: Inositol 1,4,5-trisphosphate receptor activity by residual [3H]- IP3 binding to rat cerebellar membranes by the compound at logC = -9M
[4] = target: Inositol 1,4,5-trisphosphate-gated calcium channel ITPR3 (Rattus norvegicus) (UniProt Q63269); test: Inositol 1,4,5-trisphosphate receptor activity by residual [3H]- IP3 binding to rat cerebellar membranes by the compound at logC = -5M
[5] = target: Inositol 1,4,5-trisphosphate-gated calcium channel ITPR3 (Rattus norvegicus) (UniProt Q63269); test: Inositol 1,4,5-trisphosphate receptor activity by residual [3H]- IP3 binding to rat cerebellar membranes by the compound at logC = -8M

Inositol 1,4,5-trisphosphate-gated calcium channel ITPR3 (Rattus norvegicus), sequence (Q63269 whole entry): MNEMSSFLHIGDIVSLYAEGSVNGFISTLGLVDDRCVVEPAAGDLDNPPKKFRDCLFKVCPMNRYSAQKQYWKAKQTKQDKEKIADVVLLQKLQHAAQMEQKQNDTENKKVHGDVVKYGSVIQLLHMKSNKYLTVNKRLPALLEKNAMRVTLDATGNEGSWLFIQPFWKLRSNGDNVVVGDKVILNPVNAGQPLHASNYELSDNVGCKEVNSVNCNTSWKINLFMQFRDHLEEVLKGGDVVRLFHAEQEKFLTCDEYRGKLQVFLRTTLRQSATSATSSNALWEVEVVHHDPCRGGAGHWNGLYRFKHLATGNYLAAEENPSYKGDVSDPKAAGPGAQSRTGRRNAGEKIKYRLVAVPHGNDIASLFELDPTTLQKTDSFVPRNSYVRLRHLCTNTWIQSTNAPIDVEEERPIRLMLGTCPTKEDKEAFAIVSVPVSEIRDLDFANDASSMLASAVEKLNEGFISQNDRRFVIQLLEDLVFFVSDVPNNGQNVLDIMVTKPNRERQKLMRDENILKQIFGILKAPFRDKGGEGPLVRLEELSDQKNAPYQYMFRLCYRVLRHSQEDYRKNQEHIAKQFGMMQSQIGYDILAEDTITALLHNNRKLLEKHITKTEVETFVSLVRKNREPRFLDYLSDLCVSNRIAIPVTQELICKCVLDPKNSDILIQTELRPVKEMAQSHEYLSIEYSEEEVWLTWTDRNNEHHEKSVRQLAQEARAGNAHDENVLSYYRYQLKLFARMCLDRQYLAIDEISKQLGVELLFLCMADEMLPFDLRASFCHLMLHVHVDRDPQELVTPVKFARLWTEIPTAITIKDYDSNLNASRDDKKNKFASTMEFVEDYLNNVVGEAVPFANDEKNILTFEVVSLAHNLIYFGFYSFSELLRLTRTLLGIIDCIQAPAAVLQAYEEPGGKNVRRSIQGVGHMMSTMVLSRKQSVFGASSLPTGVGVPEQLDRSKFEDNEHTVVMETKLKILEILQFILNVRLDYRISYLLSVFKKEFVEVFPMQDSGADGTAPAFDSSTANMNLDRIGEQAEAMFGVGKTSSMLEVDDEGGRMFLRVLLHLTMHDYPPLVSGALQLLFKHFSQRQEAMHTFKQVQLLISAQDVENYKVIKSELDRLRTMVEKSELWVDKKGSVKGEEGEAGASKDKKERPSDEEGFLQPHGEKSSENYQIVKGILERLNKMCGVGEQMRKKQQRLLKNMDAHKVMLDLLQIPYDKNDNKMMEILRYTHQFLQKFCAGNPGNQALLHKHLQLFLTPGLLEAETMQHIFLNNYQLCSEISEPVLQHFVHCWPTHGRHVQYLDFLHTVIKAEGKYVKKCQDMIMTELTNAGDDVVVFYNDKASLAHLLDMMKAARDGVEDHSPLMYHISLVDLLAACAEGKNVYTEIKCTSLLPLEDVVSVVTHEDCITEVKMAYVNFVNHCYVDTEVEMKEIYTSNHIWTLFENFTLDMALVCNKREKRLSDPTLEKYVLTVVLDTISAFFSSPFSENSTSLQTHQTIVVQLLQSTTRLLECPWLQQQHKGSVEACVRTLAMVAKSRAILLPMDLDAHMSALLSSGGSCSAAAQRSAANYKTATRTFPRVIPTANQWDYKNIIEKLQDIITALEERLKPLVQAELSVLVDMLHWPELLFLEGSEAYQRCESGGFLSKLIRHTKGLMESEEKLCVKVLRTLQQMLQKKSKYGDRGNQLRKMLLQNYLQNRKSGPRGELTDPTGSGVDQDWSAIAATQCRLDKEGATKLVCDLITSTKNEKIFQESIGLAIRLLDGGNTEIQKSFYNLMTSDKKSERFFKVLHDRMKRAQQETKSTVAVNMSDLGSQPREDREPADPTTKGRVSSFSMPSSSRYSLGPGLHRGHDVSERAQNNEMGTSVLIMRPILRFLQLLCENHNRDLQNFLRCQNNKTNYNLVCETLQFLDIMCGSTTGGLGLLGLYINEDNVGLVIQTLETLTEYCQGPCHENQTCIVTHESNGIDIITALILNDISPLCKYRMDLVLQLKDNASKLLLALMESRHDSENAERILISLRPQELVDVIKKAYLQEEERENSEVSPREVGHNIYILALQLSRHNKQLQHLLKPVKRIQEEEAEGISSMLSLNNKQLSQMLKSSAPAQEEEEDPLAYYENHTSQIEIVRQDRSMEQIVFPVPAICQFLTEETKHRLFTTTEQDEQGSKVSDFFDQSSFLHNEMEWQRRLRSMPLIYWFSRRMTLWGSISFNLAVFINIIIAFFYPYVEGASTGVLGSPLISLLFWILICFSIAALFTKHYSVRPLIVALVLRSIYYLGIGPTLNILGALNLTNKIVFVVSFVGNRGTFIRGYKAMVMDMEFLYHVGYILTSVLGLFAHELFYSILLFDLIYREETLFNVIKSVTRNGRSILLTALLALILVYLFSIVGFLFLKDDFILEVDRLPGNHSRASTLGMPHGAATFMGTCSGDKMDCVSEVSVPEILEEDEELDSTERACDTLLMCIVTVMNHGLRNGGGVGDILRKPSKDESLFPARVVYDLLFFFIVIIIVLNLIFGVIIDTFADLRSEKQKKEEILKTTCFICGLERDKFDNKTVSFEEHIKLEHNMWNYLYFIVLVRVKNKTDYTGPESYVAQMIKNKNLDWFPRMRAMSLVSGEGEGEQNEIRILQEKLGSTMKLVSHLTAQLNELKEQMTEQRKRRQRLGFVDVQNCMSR

SMILES | residual activity [1] | residual activity [2] | residual activity [3] | residual activity [4] | residual activity [5]
O=P(O)(O)O[C@@H]1[C@@H](O)[C@H](OP(=O)(O)O)[C@H](O)C[C@@H]1OP(=O)(O)O | 80% | 100% | 100% | 40% | 110%
O=P(O)(O)O[C@@H]1[C@@H](O)[C@H](OP(=O)(O)O)[C@H](O)C[C@H]1OP(=O)(O)O | 20% | 50% | – | – | 100%
O=P(O)(O)O[C@@H]1[C@H](O)[C@@H](O)[C@@H](OP(=O)(O)O)[C@H](OP(=O)(O)O)[C@H]1O | 5% | 20% | 95% | 5% | 70%
